PubChem BioAssay AID1963854 (Molecular Pharmacology Branch, DTP, NCI, 2024)

Tested on: 186277-243-T-J2-PDC complex spheroid viability
Assay: Anticancer human tumor 186277-243-T-J2-PDC patient-derived colon adenocarcinoma cell line growth inhibition [POLQ]
Conditions: for IC50: curve of first compound; for viability, T/C: stronger effect = lower value
Method: Multicellular complex tumor spheroid response to Polymerase (POL) inhibitors (novobiocin, ART-558, RP6685) in combination with a variety of drugs and investigational agents in selected tumor cell lines
The POL inhibitors (novobiocin, ART-558, and RP6685) were evaluated both individually and in combination with standard of care and investigational anticancer small molecules within a complex spheroid model of solid tumors. . Complex spheroids include a stromal component modeled by human endothelial cells (HUVEC) and fibroblasts modeled by human mesenchymal stem cells (MSCs). The concentration ranges selected for each drug and investigational agent were based upon clinically achievable concentrations if the clinical Cmax of the agent was known.
Compounds. The drugs and investigational agents: novobiocin (NSC847541), ART-558 (NSC835418), RP-6685 (NSC848927), peposertib (NSC802822), ceralasertib (NSC780249), elimusertib (NSC800525), camonsertib (NSC841442), AZD-1390 (NSC803789), olaparib (NSC753686), talazoparib (NSC767125), rucaparib (NSC756644), sotorasib (NSC818433), MRTX-1133 (NSC836407), SN-38 (NSC673596), topotecan (NSC609699), epotoside (NSC141540), doxorubicin (NSC123127), gemcitabine (NSC613327), 5-fluorouracil (NSC19893), paclitaxel (NSC125973), vemurafenib (NSC761431), MSA-2 (NSC828583), SN-011 (NSC837082), adavosertib (NSC754352), prexasertib (NSC758257), carboplatin (NSC241240) and oxaliplatin (NSC266046), were obtained from the National Cancer Institute (NCI) Developmental Therapeutics Program Chemical Repository (21). The FDA-approved anticancer drug set is available from the Developmental Therapeutics Program at https://dtp.cancer.gov/organization/dscb/obtaining/. […] The stock solutions were prepared in dimethyl sulfoxide (DMSO, Sigma-Aldrich, St. Louis, MO, cat. D2650), except for the platinum compounds which were prepared in saline (Quality Biological, Gaithersburg, MD, cat. 114-055-101), at 800-fold the tested concentration and stored at -70 degrees C prior to their use. All drugs and investigational agents were tested over a range starting from a high concentration at or near the clinical Cmax and decreasing in half-log increments. If the clinical Cmax for an agent had not been determined, the highest concentration tested was 10 microM, except for SN-38, which was tested at a high concentration of 1 microM.
Cell Culture. All cells were maintained in an incubator at 37 degrees C and 5% CO2 with 95% humidity. The PDC lines were cultured according to standard operating procedures established by the NCI PDMR (https://pdmr.cancer.gov). Table 3 of the manuscript, lists the cell lines along with the number of the three cell types plated to form the mct-spheroids and media for tumor cell growth. After thawing, all PDC lines, except 997537-175-T-J1-PDC and 415267-285-R-J2-PDC, were cultured in Matrigel-coated flasks prepared with a working solution of 1X Ham's F-12 nutrient mix, without supplementation (Thermo Fisher Scientific, cat. 11765054), 100 U/mL penicillin-streptomycin (Thermo Fisher Scientific, cat. 15140122), and 2.5% Matrigel (Corning Inc., Corning, NY, cat. 354248) for the first three passages. The two PDC lines 997537-175-T-J1-PDC and 415267-285-R-J2-PDC were cultured on uncoated flasks. The 857933-349-R-J2-PDC line was cultured in 6C/Colon 1B media containing advanced DMEM/F-12 (Thermo Fisher Scientific, cat. 12634028), 10 mM HEPES (Thermo Fisher Scientific, cat. 15630080), 1X GlutaMAX supplement (Thermo Fisher Scientific, cat. 35050061), 0.1 mg/mL primocin (InvivoGen, San Diego, CA, cat. ant-pm-2), 10% defined fetal bovine serum, heat inactivated (HyClone Laboratories Inc., Logan, UT, cat. SH30070.03HI), 50% L-WRN conditioned media (ATCC, cat. CRL-3276), 1.25 mM N-Acetyl-L-cysteine (Sigma-Aldrich, cat. A9165), 10 mM nicotinamide (Sigma-Aldrich, cat. N0636), 1X B-27 supplement (Thermo Fisher Scientific, cat. 17504044), 1X N-2 supplement (Thermo Fisher Scientific, cat. […]
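Also: spheroids exposed to compounds for seven days.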
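For viability, T/C in this document: 100% = DMSO vehicle control viability.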

In the case of `CC(=O)O[C@H]1C(=O)[C@@]2(C)[C@H]([C@H](OC(=O)c3ccccc3)[C@]3(O)C[C@H](OC(=O)[C@H](O)[C@@H](NC(=O)c4ccccc4)c4ccccc4)C(C)=C1C3(C)C)[C@]1(OC(C)=O)CO[C@@H]1C[C@@H]2O` + COC1C(OC(N)=O)C(O)C(Oc2ccc3c(O)c(NC(=O)c4ccc(O)c(CC=C(C)C)c4)c(=O)oc3c2C)OC1(C)C, the IC50 (second compound 0.0316 µM) is reported as under 9.49 nM, the IC50 (second compound 0.1 µM) is reported as under 9.49 nM and the IC50 (second compound 0.316 µM) is reported as under 9.49 nM. The IC50 (second compound 1 µM) was under 9.49 nM, the IC50 (second compound 3.16 µM) was under 9.49 nM and the IC50 (second compound 10 µM) was under 9.49 nM. For the same compound, the viability, T/C (second compound 0.0316 µM, first compound 0.00949 µM) was 18.8%, the viability, T/C (second compound 0.0316 µM, first compound 0.03 µM) was 6.51% and the viability, T/C (second compound 0.0316 µM, first compound 0.0949 µM) was 3.77%. For the same compound, the viability, T/C (second compound 0.0316 µM, first compound 0.3 µM) was 2.87%, the viability, T/C (second compound 0.0316 µM, first compound 0.949 µM) was 2.1% and the viability, T/C (second compound 0.0316 µM, first compound 3 µM) was 2.04%. The viability, T/C (second compound 0.1 µM, first compound 0.00949 µM) was 17.1%, the viability, T/C (second compound 0.1 µM, first compound 0.03 µM) was 5.55% and the viability, T/C (second compound 0.1 µM, first compound 0.0949 µM) was 3.16%. For the same compound, the viability, T/C (second compound 0.1 µM, first compound 0.3 µM) was 3.36%, the viability, T/C (second compound 0.1 µM, first compound 0.949 µM) was 2.39% and the viability, T/C (second compound 0.1 µM, first compound 3 µM) was 2.52%. It also gave a viability, T/C (second compound 0.316 µM, first compound 0.00949 µM) of 20.7%, a viability, T/C (second compound 0.316 µM, first compound 0.03 µM) of 5.59% and a viability, T/C (second compound 0.316 µM, first compound 0.0949 µM) of 3.78%. For the same compound, the viability, T/C (second compound 0.316 µM, first compound 0.3 µM) was 2.55%, the viability, T/C (second compound 0.316 µM, first compound 0.949 µM) was 2.77% and the viability, T/C (second compound 0.316 µM, first compound 3 µM) was 2.42%. The viability, T/C (second compound 1 µM, first compound 0.00949 µM) was 19%, the viability, T/C (second compound 1 µM, first compound 0.03 µM) was 5.89% and the viability, T/C (second compound 1 µM, first compound 0.0949 µM) was 3.25%. For the same compound, the viability, T/C (second compound 1 µM, first compound 0.3 µM) was 3.12%, the viability, T/C (second compound 1 µM, first compound 0.949 µM) was 2.59% and the viability, T/C (second compound 1 µM, first compound 3 µM) was 2.05%. The viability, T/C (second compound 3.16 µM, first compound 0.00949 µM) was 17%, the viability, T/C (second compound 3.16 µM, first compound 0.03 µM) was 6.12% and the viability, T/C (second compound 3.16 µM, first compound 0.0949 µM) was 3.2%. The viability, T/C (second compound 3.16 µM, first compound 0.3 µM) was 2.83%, the viability, T/C (second compound 3.16 µM, first compound 0.949 µM) was 3.06% and the viability, T/C (second compound 3.16 µM, first compound 3 µM) was 2.28%. For the same compound, the viability, T/C (second compound 10 µM, first compound 0.00949 µM) was 19.6%, the viability, T/C (second compound 10 µM, first compound 0.03 µM) was 5.72% and the viability, T/C (second compound 10 µM, first compound 0.0949 µM) was 3.65%. The viability, T/C (second compound 10 µM, first compound 0.3 µM) was 2.92%, the viability, T/C (second compound 10 µM, first compound 0.949 µM) was 2.88% and the viability, T/C (second compound 10 µM, first compound 3 µM) was 2.55%.
